In patent US10071974B2, “Morpholine and 1,4-oxazepane amides as somatostatin receptor subtype 4 (SSTR4) agonists” (Boehringer Ingelheim International GmbH, priority 2014, dated 2018):
Like-named read-outs stand apart in the source and are kept apart here.

Key:
[1] = human, microsomes
[2] = target: human Somatostatin 4 Receptor (SSTR4) (Homo sapiens (Human), UniProt P31391); assay: cAMP assay with human somatostatin 4 receptor (hSSTR4 expressing H4 cells); type: cell-based; conditions: read-out: SSTR4 agonism EC50
human Somatostatin 4 Receptor (SSTR4), sequence (P31391 whole entry): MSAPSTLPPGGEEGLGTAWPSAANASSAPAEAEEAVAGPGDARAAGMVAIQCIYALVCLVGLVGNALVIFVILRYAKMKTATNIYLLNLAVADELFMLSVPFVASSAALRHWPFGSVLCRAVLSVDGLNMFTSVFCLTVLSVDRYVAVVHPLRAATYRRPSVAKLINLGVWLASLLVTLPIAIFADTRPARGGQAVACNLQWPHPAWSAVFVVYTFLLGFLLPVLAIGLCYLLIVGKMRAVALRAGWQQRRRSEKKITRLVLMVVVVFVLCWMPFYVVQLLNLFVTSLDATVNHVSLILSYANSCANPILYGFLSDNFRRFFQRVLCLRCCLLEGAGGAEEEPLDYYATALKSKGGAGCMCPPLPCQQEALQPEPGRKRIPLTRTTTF

[3] = Metabolic stability in pooled human liver microsomes; conditions: 1 μM test compound, 37° C.

Half-life t1/2 [1] [h] | EC50 [2] [nM] | Half-life t1/2 [3] [h] | SMILES
>2.17 |  |  | CC(C)(NC(=O)C1CNCCOC1)c1noc2c(Cl)cccc12 (single isomer, unassigned) [Example 73]
 | 4.1 | >2.17 | Cc1cccc2c(C(C)(C)NC(=O)[C@@H]3CNCCO3)nn(C)c12 [Example 83]
 |  | 1.67 | Cn1nc(C(C)(C)NC(=O)[C@@H]2CNCCO2)c2cccc(Cl)c21 [Example 79]
